Test results reported in patent publication US10159678B2, “Methods to decrease susceptibility to asthmatic bronchoconstriction” (Cornell University, priority 2012, dated 2018).

Experiments:
[1] = system: BALB/c mice; test: Lung mechanics and airway reactivity to inhaled methacholine after intranasal myriocin; format: in vivo; details: 3 h after intranasal myriocin (2 or 20 μg)
Description: Animal studies described herein were conducted under protocols approved by the Institutional Animal Care and Use Committee of Weill Cornell Medical College. Female BALB/c mice, obtained from Taconic Farms (Tarrytown, N.Y.). Animals were housed under specific pathogen-free conditions and used at 6 to 8 weeks of age. Myriocin (Enzo Life Sciences, Plymouth Meeting, Pa.) was freshly prepared from a 10 mM stock solution to a 1 mM or 100 μM solution in 0.9% saline and 0.05% fatty acid free bovine serum albumin and 50 μl were administered intranasally. Control animals received the vehicle solution (1% DMSO in 0.9% saline, 0.5% BSA) or were naïve. […]
Mice were anaesthetized with pentobarbital (100 mg/kg; American Pharmaceutical Partners, Los Angeles, Calif.), tracheostomized and mechanically ventilated at a rate of 150 breaths/min, a tidal volume of 10 ml/kg and positive end-expiratory pressure of 2-3 cm H2O using a computer-controlled animal ventilator (Sireq, Montreal, Canada). […] Rn and G were also assessed following increasing doses of methacholine (3.125, 12.5 and 50 mg/ml).
Experiments were then performed to assess if administration of myriocin directly to the respiratory tract affects pulmonary function. […] Airway resistance (Rn) in response to increasing doses of inhaled methacholine was determined 3 h after myriocin administration. […]

[2] = target: T1, SPT (Mus musculus, UniProt O35704+P97363); test: Incorporation of 3H-serine / 3H-sphingosine in lung homogenates after intranasal myriocin; format: in vivo, mice
T1 construct: from tissue
T1 sequence (P97363 1-560): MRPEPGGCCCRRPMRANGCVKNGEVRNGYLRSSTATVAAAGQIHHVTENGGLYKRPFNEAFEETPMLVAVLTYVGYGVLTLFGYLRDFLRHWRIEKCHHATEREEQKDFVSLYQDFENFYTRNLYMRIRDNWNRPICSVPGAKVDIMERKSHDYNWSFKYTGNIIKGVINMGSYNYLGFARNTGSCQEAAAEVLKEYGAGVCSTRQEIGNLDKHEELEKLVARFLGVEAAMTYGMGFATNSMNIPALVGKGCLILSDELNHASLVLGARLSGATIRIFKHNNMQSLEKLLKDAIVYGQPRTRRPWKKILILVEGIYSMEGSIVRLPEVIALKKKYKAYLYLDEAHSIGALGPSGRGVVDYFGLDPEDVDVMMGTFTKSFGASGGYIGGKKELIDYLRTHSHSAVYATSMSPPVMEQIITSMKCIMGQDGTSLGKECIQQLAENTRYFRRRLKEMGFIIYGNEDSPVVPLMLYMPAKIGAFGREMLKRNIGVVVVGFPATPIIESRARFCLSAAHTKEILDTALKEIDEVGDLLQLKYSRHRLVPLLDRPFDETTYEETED
T1 sequence (O35704 1-473): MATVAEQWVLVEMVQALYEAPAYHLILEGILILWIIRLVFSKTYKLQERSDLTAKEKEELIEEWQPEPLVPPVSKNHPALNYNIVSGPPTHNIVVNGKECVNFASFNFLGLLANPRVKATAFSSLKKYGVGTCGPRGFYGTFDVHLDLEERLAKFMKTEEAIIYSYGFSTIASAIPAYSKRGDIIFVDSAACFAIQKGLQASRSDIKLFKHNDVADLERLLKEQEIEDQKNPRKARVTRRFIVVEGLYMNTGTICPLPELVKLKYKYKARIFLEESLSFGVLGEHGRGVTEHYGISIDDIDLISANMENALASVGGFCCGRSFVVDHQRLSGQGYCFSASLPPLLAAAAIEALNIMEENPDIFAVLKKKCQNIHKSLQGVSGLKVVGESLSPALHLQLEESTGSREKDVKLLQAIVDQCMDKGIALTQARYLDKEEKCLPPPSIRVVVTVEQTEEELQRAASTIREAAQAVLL
T1 sequence (Q8R207 1-71 partner): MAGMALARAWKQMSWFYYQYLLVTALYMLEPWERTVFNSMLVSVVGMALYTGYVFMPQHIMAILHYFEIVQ
Description: Lungs were harvested following perfusion with phosphate-buffered saline (PBS, Invitrogen, Carlsbad, Calif.) containing 0.6 mM ethylenediamine tetra acetic acid dipotassium salt dehydrate (EDTA, Invitrogen) via the right ventricle to remove blood cells from the pulmonary circulation. The lungs were then homogenized in normal PBS. De-novo sphingolipid synthesis was assessed by evaluating incorporation of ^3H-serine (24.1 Ci/mmol, Perkin Elmer (Boston, Mass.) into ceramide and sphingosine. Sphingolipid synthesis through the recycling pathway was assessed by evaluating incorporation of ^3H-sphingosine (18.2 Ci/mmol, Perkin Elmer (Boston, Mass.) into ceramide and sphingomyelin. In both assays, equal amounts of fresh lung homogenates were incubated for 30 min at 37° C. with 2 μl of the radioactive tracer, followed by lyophilization to determine dry weight, lipid extraction with chloroform/methanol/water (1:1:0.9). The organic phase was evaporated, dissolved in 50 μl chloroform/methanol (1:1) spotted on […] chromatography plates (TLC) (Merck Silica gel 60, Darmstadt, Germany) and chromatographed for 25 min with chloroform-methanol-ammonium hydroxide (65:25:4 v/v). […] The TLC plate was cut at the corresponding lipid spot, mixed with scintillation fluid (Ultima Gold, Packard Instrument Company, CT) and analyzed in a scintillation counter (Perkin Elmer Wallac, Gaithersburg, Md.). […]

CCCCCCC(=O)CCCCCC/C=C/C[C@@H](O)[C@H](O)[C@@](N)(CO)C(=O)O [myriocin]
airway reactivity (airway resistance Rn in response to inhaled methacholine) ([1]; FIG. 3A): increased | Baseline lung mechanical properties, such as static compliance ([1]; FIG. 3B): not altered | SPT-dependent synthesis of sphinganine from 3H-serine ([2]; 3 hours following intranasal administration of myriocin): significantly decreased | Non-SPT-dependent syntheses of ceramides or sphingomyelins from 3H-sphingosine ([2]; after myriocin administration, data not shown): not affected
